Measurements from the NIST ThermoML archive (doi:10.1016/j.jct.2010.12.028).
Numbers after ± are expanded uncertainties.

What was measured:
[1] = excess molar enthalpy (molar enthalpy of mixing); xn = mol fraction of the nth substance listed; settings: 308.15 K, 101 kPa, Liquid, two-drop calorimeter
[2] = xn = mol fraction of the nth substance listed; settings: 101 kPa, Liquid; for speed of sound: Sing-around technique in a fixed-path interferometer; for mass density: Vibrating tube method

Structure (SMILES): Cc1ccccn1 [2-methylpyridine] + Cc1ccccc1N
- excess molar enthalpy ([1]; x2 = 0.0496): -0.285 ± 0.013 kJ/mol
- excess molar enthalpy ([1]; x2 = 0.0772): -0.43 ± 0.018 kJ/mol
- excess molar enthalpy ([1]; x2 = 0.1356): -0.725 ± 0.03 kJ/mol
- excess molar enthalpy ([1]; x2 = 0.1802): -0.921 ± 0.038 kJ/mol
- excess molar enthalpy ([1]; x2 = 0.2234): -1.09 ± 0.044 kJ/mol
- excess molar enthalpy ([1]; x2 = 0.2736): -1.25 ± 0.051 kJ/mol
- excess molar enthalpy ([1]; x2 = 0.3294): -1.37 ± 0.056 kJ/mol
- excess molar enthalpy ([1]; x2 = 0.3813): -1.45 ± 0.059 kJ/mol
- excess molar enthalpy ([1]; x2 = 0.4326): -1.51 ± 0.061 kJ/mol
- excess molar enthalpy ([1]; x2 = 0.4882): -1.5 ± 0.061 kJ/mol
- excess molar enthalpy ([1]; x2 = 0.5321): -1.47 ± 0.06 kJ/mol
- excess molar enthalpy ([1]; x2 = 0.5735): -1.43 ± 0.058 kJ/mol
- excess molar enthalpy ([1]; x2 = 0.6423): -1.28 ± 0.052 kJ/mol
- excess molar enthalpy ([1]; x2 = 0.7152): -1.08 ± 0.044 kJ/mol
- excess molar enthalpy ([1]; x2 = 0.7821): -0.866 ± 0.035 kJ/mol
- excess molar enthalpy ([1]; x2 = 0.8293): -0.68 ± 0.028 kJ/mol
- excess molar enthalpy ([1]; x2 = 0.8916): -0.437 ± 0.018 kJ/mol
- excess molar enthalpy ([1]; x2 = 0.9676): -0.125 ± 0.0067 kJ/mol
- speed of sound ([2]; 298.15 K, x2 = 0.0588): 1395.6 ± 2.9 m/s
- speed of sound ([2]; 298.15 K, x2 = 0.1226): 1412 ± 2.8 m/s
- speed of sound ([2]; 298.15 K, x2 = 0.1427): 1417.3 ± 2.8 m/s
- speed of sound ([2]; 298.15 K, x2 = 0.1759): 1425.8 ± 2.8 m/s
- speed of sound ([2]; 298.15 K, x2 = 0.2258): 1438.3 ± 2.8 m/s
- speed of sound ([2]; 298.15 K, x2 = 0.2557): 1445.7 ± 2.8 m/s
- speed of sound ([2]; 298.15 K, x2 = 0.3113): 1459.5 ± 2.7 m/s
- speed of sound ([2]; 298.15 K, x2 = 0.3629): 1471.8 ± 2.7 m/s
- speed of sound ([2]; 298.15 K, x2 = 0.4213): 1485.4 ± 2.6 m/s
- speed of sound ([2]; 298.15 K, x2 = 0.4743): 1497.5 ± 2.6 m/s
- speed of sound ([2]; 298.15 K, x2 = 0.5146): 1506.3 ± 2.6 m/s
- speed of sound ([2]; 298.15 K, x2 = 0.5732): 1519.1 ± 2.6 m/s
- speed of sound ([2]; 298.15 K, x2 = 0.6182): 1528.4 ± 2.5 m/s
- speed of sound ([2]; 298.15 K, x2 = 0.6862): 1542.2 ± 2.5 m/s
- speed of sound ([2]; 298.15 K, x2 = 0.7571): 1556.3 ± 2.5 m/s
- speed of sound ([2]; 298.15 K, x2 = 0.8344): 1571.1 ± 2.4 m/s
- speed of sound ([2]; 298.15 K, x2 = 0.8737): 1578.5 ± 2.4 m/s
- speed of sound ([2]; 298.15 K, x2 = 0.9527): 1593.5 ± 2.4 m/s
- mass density ([2]; 298.15 K, x2 = 0.0588): 944.871 ± 0.74 kg/m3
- mass density ([2]; 298.15 K, x2 = 0.1226): 950.051 ± 0.7 kg/m3
- mass density ([2]; 298.15 K, x2 = 0.1427): 951.609 ± 0.68 kg/m3
- mass density ([2]; 298.15 K, x2 = 0.1759): 954.117 ± 0.66 kg/m3
- mass density ([2]; 298.15 K, x2 = 0.2258): 957.721 ± 0.63 kg/m3
- mass density ([2]; 298.15 K, x2 = 0.2557): 959.793 ± 0.61 kg/m3
- mass density ([2]; 298.15 K, x2 = 0.3113): 963.447 ± 0.58 kg/m3
- mass density ([2]; 298.15 K, x2 = 0.3629): 966.623 ± 0.55 kg/m3
- mass density ([2]; 298.15 K, x2 = 0.4213): 969.995 ± 0.52 kg/m3
- mass density ([2]; 298.15 K, x2 = 0.4743): 972.843 ± 0.49 kg/m3
- mass density ([2]; 298.15 K, x2 = 0.5146): 974.899 ± 0.46 kg/m3
- mass density ([2]; 298.15 K, x2 = 0.5732): 977.707 ± 0.43 kg/m3
- mass density ([2]; 298.15 K, x2 = 0.6182): 979.733 ± 0.41 kg/m3
- mass density ([2]; 298.15 K, x2 = 0.6862): 982.621 ± 0.37 kg/m3
- mass density ([2]; 298.15 K, x2 = 0.7571): 985.441 ± 0.34 kg/m3
- mass density ([2]; 298.15 K, x2 = 0.8344): 988.355 ± 0.3 kg/m3
- mass density ([2]; 298.15 K, x2 = 0.8737): 989.787 ± 0.28 kg/m3
- mass density ([2]; 298.15 K, x2 = 0.9527): 992.636 ± 0.25 kg/m3
- speed of sound ([2]; 303.15 K, x2 = 0.0588): 1376.2 ± 2.9 m/s
- speed of sound ([2]; 303.15 K, x2 = 0.1226): 1392.5 ± 2.8 m/s
- speed of sound ([2]; 303.15 K, x2 = 0.1427): 1397.5 ± 2.8 m/s
- speed of sound ([2]; 303.15 K, x2 = 0.1759): 1405.8 ± 2.8 m/s
- speed of sound ([2]; 303.15 K, x2 = 0.2258): 1418.1 ± 2.8 m/s
- speed of sound ([2]; 303.15 K, x2 = 0.2557): 1425.4 ± 2.8 m/s
- speed of sound ([2]; 303.15 K, x2 = 0.3113): 1438.7 ± 2.7 m/s
- speed of sound ([2]; 303.15 K, x2 = 0.3629): 1450.8 ± 2.7 m/s
- speed of sound ([2]; 303.15 K, x2 = 0.4213): 1464 ± 2.6 m/s
